Data: the NIST ThermoML archive (doi:10.1021/je3007474)

Test: xn = mol fraction of the nth substance listed
Conditions: 101 kPa, Liquid; for viscosity: Falling or rolling sphere viscometry; for mass density: Vibrating tube method

CCCCn1cc[n+](C)c1C.F[B-](F)(F)F [1-butyl-2,3-dimethylimidazolium tetrafluoroborate] + CC#N
Conditions	mass density [kg/m3]	viscosity [mPa·s]
298.15 K, x1 = 0.1118	919.74	1.045
298.15 K, x1 = 0.1536	957.71	–
298.15 K, x1 = 0.2247	1008.5	2.637
298.15 K, x1 = 0.3784	1079.62	8.933
298.15 K, x1 = 0.4601	1104.79	–
298.15 K, x1 = 0.5515	1127.21	32.3
298.15 K, x1 = 0.666	1149.45	67.72
298.15 K, x1 = 0.7581	1163.71	143.9
298.15 K, x1 = 0.8423	1174.52	241.4
298.15 K, x1 = 1	1193.19	650
303.15 K, x1 = 0.1118	915.06	0.982
303.15 K, x1 = 0.1536	953.22	–
303.15 K, x1 = 0.2247	1004.26	2.438
303.15 K, x1 = 0.3784	1075.69	7.746
303.15 K, x1 = 0.4601	1100.98	–
303.15 K, x1 = 0.5515	1123.51	26.37
303.15 K, x1 = 0.666	1145.88	52.92
303.15 K, x1 = 0.7581	1160.23	108.2
303.15 K, x1 = 0.8423	1171.09	176.3
303.15 K, x1 = 1	1189.8	447
313.15 K, x1 = 0.1118	905.7	0.873
313.15 K, x1 = 0.1536	944.25	–
313.15 K, x1 = 0.2247	995.79	2.071
313.15 K, x1 = 0.3784	1067.89	5.997
313.15 K, x1 = 0.4601	1093.41	–
313.15 K, x1 = 0.5515	1116.15	18.33
313.15 K, x1 = 0.666	1138.75	34.34
313.15 K, x1 = 0.7581	1153.24	65.14
313.15 K, x1 = 0.8423	1164.22	102.2
313.15 K, x1 = 1	1183.02	232.9
323.15 K, x1 = 0.1118	896.31	0.783
323.15 K, x1 = 0.1536	935.27	–
323.15 K, x1 = 0.2247	987.34	1.781
323.15 K, x1 = 0.3784	1060.12	4.784
323.15 K, x1 = 0.4601	1085.88	–
323.15 K, x1 = 0.5515	1108.85	13.36
323.15 K, x1 = 0.666	1131.67	23.63
323.15 K, x1 = 0.7581	1146.32	42.26
323.15 K, x1 = 0.8423	1157.4	63.15
323.15 K, x1 = 1	1176.38	132.8
333.15 K, x1 = 0.1118	886.87	0.714
333.15 K, x1 = 0.1536	926.27	–
333.15 K, x1 = 0.2247	978.89	1.551
333.15 K, x1 = 0.3784	1052.37	3.914
333.15 K, x1 = 0.4601	1078.37	–
333.15 K, x1 = 0.5515	1101.56	10.11
333.15 K, x1 = 0.666	1124.62	17.06
333.15 K, x1 = 0.7581	1139.41	28.89
333.15 K, x1 = 0.8423	1150.59	41.76
333.15 K, x1 = 1	1169.82	81.53
343.15 K, x1 = 0.1118	877.39	0.572
343.15 K, x1 = 0.1536	917.25	–
343.15 K, x1 = 0.2247	970.44	1.369
343.15 K, x1 = 0.3784	1044.64	3.264
343.15 K, x1 = 0.4601	1070.89	–
343.15 K, x1 = 0.5515	1094.31	7.897
343.15 K, x1 = 0.666	1117.6	12.79
343.15 K, x1 = 0.7581	1132.51	20.7
343.15 K, x1 = 0.8423	1143.79	30
343.15 K, x1 = 1	1163.26	53.99

CCCCn1cc[n+](C)c1C.F[B-](F)(F)F [1-butyl-2,3-dimethylimidazolium tetrafluoroborate] + C[S+](C)[O-]
Conditions	mass density [kg/m3]	viscosity [mPa·s]
298.15 K, x1 = 0.138	1128.27	5.197
298.15 K, x1 = 0.2292	1142.83	9.384
298.15 K, x1 = 0.3151	1153.4	16.2
298.15 K, x1 = 0.4079	1162.44	28.31
298.15 K, x1 = 0.5334	1172.17	60.17
298.15 K, x1 = 0.6374	1178.33	108.3
298.15 K, x1 = 0.7004	1181.74	160.1
298.15 K, x1 = 0.7952	1185.94	–
298.15 K, x1 = 0.8785	1189.03	370.4
298.15 K, x1 = 1	1193.19	650
303.15 K, x1 = 0.138	1123.85	4.594
303.15 K, x1 = 0.2292	1138.65	8.077
303.15 K, x1 = 0.3151	1149.37	13.58
303.15 K, x1 = 0.4079	1158.58	23.32
303.15 K, x1 = 0.5334	1168.48	47.09
303.15 K, x1 = 0.6374	1174.75	82.19
303.15 K, x1 = 0.7004	1178.22	119.4
303.15 K, x1 = 0.7952	1182.45	–
303.15 K, x1 = 0.8785	1185.53	263.2
303.15 K, x1 = 1	1189.8	447
313.15 K, x1 = 0.138	1115.07	3.654
313.15 K, x1 = 0.2292	1130.35	6.142
313.15 K, x1 = 0.3151	1141.4	9.873
313.15 K, x1 = 0.4079	1150.89	15.99
313.15 K, x1 = 0.5334	1161.12	30.51
313.15 K, x1 = 0.6374	1167.61	50.32
313.15 K, x1 = 0.7004	1171.2	70.58
313.15 K, x1 = 0.7952	1175.55	–
313.15 K, x1 = 0.8785	1178.68	144.9
313.15 K, x1 = 1	1183.02	232.9
323.15 K, x1 = 0.138	1106.3	2.981
323.15 K, x1 = 0.2292	1122.07	4.831
323.15 K, x1 = 0.3151	1133.47	7.481
323.15 K, x1 = 0.4079	1143.24	11.64
323.15 K, x1 = 0.5334	1153.77	20.96
323.15 K, x1 = 0.6374	1160.48	33.05
323.15 K, x1 = 0.7004	1164.2	44.88
323.15 K, x1 = 0.7952	1168.71	–
323.15 K, x1 = 0.8785	1171.96	86.55
323.15 K, x1 = 1	1176.38	132.8
333.15 K, x1 = 0.138	1097.56	2.49
333.15 K, x1 = 0.2292	1113.83	3.906
333.15 K, x1 = 0.3151	1125.56	5.851
333.15 K, x1 = 0.4079	1135.62	8.806
333.15 K, x1 = 0.5334	1146.46	15.18
333.15 K, x1 = 0.6374	1153.38	22.96
333.15 K, x1 = 0.7004	1157.22	30.3
333.15 K, x1 = 0.7952	1161.88	–
333.15 K, x1 = 0.8785	1165.23	55.64
333.15 K, x1 = 1	1169.82	81.53
343.15 K, x1 = 0.138	1088.84	2.115
343.15 K, x1 = 0.2292	1105.61	3.23
343.15 K, x1 = 0.3151	1117.7	4.708
343.15 K, x1 = 0.4079	1128.03	6.868
343.15 K, x1 = 0.5334	1139.19	11.46
343.15 K, x1 = 0.6374	1146.31	16.7
343.15 K, x1 = 0.7004	1150.26	21.53
343.15 K, x1 = 0.7952	1155.06	–
343.15 K, x1 = 0.8785	1158.52	37.74
343.15 K, x1 = 1	1163.26	53.99
353.15 K, x1 = 0.138	1080.12	1.826
353.15 K, x1 = 0.2292	1097.41	2.724
353.15 K, x1 = 0.3151	1109.86	3.873
353.15 K, x1 = 0.4079	1120.49	5.501
353.15 K, x1 = 0.5334	1131.96	8.897
353.15 K, x1 = 0.6374	1139.27	12.73
353.15 K, x1 = 0.7004	1143.34	16.03
353.15 K, x1 = 0.7952	1148.27	–
353.15 K, x1 = 0.8785	1151.83	26.75
353.15 K, x1 = 1	1156.71	37.13
